Patent US20090246134A1, “COMPOSITIONS AND METHODS FOR MODULATING GATED ION CHANNELS” (PainCeptor Pharma Corporation, priority 2007, published 2009)
Several values for one entry are separate records, joined by “and”; a condition that tells them apart may be missing. Equal values may be shown once.

Key:
[1] = Liver microsomes stability and metabolite identification (LC-MS), dog; type: in vitro ADME
[2] = Plasma composition analysis, parent compound and metabolites by MS; type: in vivo; settings: rat plasma
Experimental: Rats receive compounds (5 mg/kg) dissolved in HPβCD 15%, dextrose 2.5%, pH 5 by intravenous (i.v). route or (25-30 mg/kg) dissolved in HPβCD 15%, dextrose 2.5%, […] (s.c.) route or (50-150 mg/kg) dissolved in HPβCD 15%, dextrose 2.5%, pH 5 by oral (p.o.) route. After the treatment, approximately 100 μl of blood sample is collected and the accurate bleeding time is recorded for each sample. Each blood sample is collected into Microvette blood collection tube containing anticoagulant lithium heparin. Following collection, the samples are centrifuged at […] for 15 minutes (to avoid haemolysis) and the plasma obtained from each is recovered and stored frozen (at −80° C.) pending analysis. Frozen samples are shipped on dry ice to quantify drug concentration within plasma after extraction procedure as previously described in Example 13.

[3] = molecular target: T1, ASIC1a (Homo sapiens, UniProt P78348); assay: Whole cell patch clamp in heterologous expression system (CHO cells); type: cell-based; set-up: expressed in transfected cells; host or cells: CHO cells
T1 sequence (P78348 1-528): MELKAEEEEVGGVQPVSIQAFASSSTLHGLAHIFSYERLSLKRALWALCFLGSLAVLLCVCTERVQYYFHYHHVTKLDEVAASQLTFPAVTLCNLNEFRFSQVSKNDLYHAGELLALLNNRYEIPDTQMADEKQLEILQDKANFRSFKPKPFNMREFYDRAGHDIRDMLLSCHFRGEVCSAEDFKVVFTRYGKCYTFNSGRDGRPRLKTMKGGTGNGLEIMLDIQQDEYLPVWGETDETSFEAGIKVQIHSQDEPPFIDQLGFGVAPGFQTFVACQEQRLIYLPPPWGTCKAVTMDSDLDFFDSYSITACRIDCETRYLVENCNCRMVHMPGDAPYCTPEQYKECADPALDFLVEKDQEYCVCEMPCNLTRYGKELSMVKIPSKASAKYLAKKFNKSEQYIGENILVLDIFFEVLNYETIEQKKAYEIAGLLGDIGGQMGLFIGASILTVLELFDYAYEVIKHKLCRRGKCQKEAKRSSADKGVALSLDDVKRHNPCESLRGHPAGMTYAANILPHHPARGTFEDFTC
Experimental: Another example of an in vitro assessment method consists of using mammalian heterologous expression systems, which are known to the skilled in the art, and include a variety of mammalian cell lines such as COS, HEK, e.g., HEK293 and/or CHO, cells. Cell lines are transfected with gated ion channel(s) and used to perform electrophysiology as follows:
All experiments are performed at room temperature (20-25° C.) in voltage clamp using conventional whole cell patch clamp methods (Neher, E., et al. (1978) Pfluegers Arch 375:219-228).
The amplifier used is the EPC-9 (HEKA-electronics, Lambrect, Germany) run by a Macintosh G3 computer via an ITC-16 interface. Experimental conditions are set with the Pulse-software accompanying the amplifier. Data is low pass filtered and sampled directly to hard-disk at a rate of 3 times the cut-off frequency.
Pipettes are pulled from borosilicate glass using a horizontal electrode puller (Zeitz-lnstrumente, Augsburg, Germany). The pipette resistances are 2-3 MOhms in the salt solutions used in these experiments. The pipette electrode is a chloridized silver wire, and the reference is a silver chloride pellet electrode (In Vivo Metric, Healdsburg, USA) fixed to the experimental chamber. The electrodes are zeroed with the open pipette in the bath just prior to sealing.
Coverslips with the cells are transferred to a 15 μl experimental chamber mounted on the stage of an inverted microscope (IMT-2, Olympus) supplied with Nomarski optics. Cells are continuously superfused with extracellular saline at a rate of 2.5 ml/min. After giga-seal formation, the whole cell configuration is attained by suction. The cells are held at a holding voltage of −60 mV and at the start of each experiment the current is continuously measured for 45 s to ensure a stable baseline. […] Current amplitudes are measured at the peak of the responses, and effect of the compounds is calculated as the amplitude at compound equilibrium divided by the amplitude of the current evoked by the pulse just before the compound was included. […]

[4] = dog microsomes 60 min (samples 23-25)

With `COc1ccc(F)cc1-c1cc2c(c3c1CCN(C)C3)NC(=O)C2=NO` [Compound A, 5-(5-fluoro-2-methoxyphenyl)-6,7,8,9-tetrahydro-3-(hydroxyimino)-8-methyl-1H-pyrrolo[3,2-h]isoquinoline-2(3H)-one] the Total % metabolites ([1]; % peak area relative to parent at T0, 60 min incubation, dog microsomes) was 2.74%, the “Compound A metabolite identification: m/z 342” value [1, 4] was “weak” and the “Compound A metabolite identification: m/z 356 (parent)” value [1, 4] was “Yes”. The “Compound A metabolite identification: m/z 372” value [1, 4] was “Yes”, the “Compound A metabolite identification: m/z 412” value [1, 4] was “no” and the “Calc. Conc.” value ([1]; dog microsomes, time 0 min) was 4.71 µM and 5.14 µM. The “Calc. Conc.” value ([1]; dog microsomes, time 60 min) was 3.95 µM and 4.05 µM and 4.10 µM, the “Plasma Component: N-desMe or desEt” value ([2]; IV 5 mg/kg) was “Small” and the “Plasma Component: O-desMe” value ([2]; IV 5 mg/kg) was “Trace”. For the same compound, the “Plasma Component: N-desMe or desEt” value ([2]; PO 50 mg/kg) was “Small”, the “Plasma Component: O-desMe” value ([2]; PO 50 mg/kg) was “Trace” and the “human ASIC1a pH-evoked response” value [3] was “reduce the human ASIC1a pH-evoked response in CHO cells in a dose-dependent manner”. For the same compound, the “potency relative to amiloride on human ASIC1a pH-evoked response” value [3] was “about 100 fold”.
